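Five compound concentrations were applied to cells in 96-well plates for 48 hours; endpoints were derived by simple linear interpolation of the resulting dose-response curve. Abbreviation: GI50, concentration required for 50% inhibition of growth.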 Activity calls are given as the source filed them. Cut-off read from the data, not from the text of the source: active = GI50 up to about 1.1 µM and inactive = higher.
Columns and labels:
Experiment in all cases: NCI tumour cell line growth inhibition, 48 h
OVCAR-8 = tested on: OVCAR-8
PC-3 = tested on: PC-3
SK-MEL-2 = tested on: SK-MEL-2
RXF 393 = tested on: RXF 393
SK-MEL-5 = tested on: SK-MEL-5
CAKI-1 = tested on: CAKI-1
MDA-MB-435 = tested on: MDA-MB-435
Hs-578T = tested on: Hs-578T
A549 = tested on: A549
K562 = tested on: K562
NCI-H226 = tested on: NCI-H226
NCI-H460 = tested on: NCI-H460
COLO 205 = tested on: COLO 205
UACC-257 = tested on: UACC-257
SR = tested on: SR
T47D = tested on: T47D
NCI-H23 = tested on: NCI-H23
RPMI-8226 = tested on: RPMI-8226
NCI/ADR-RES = tested on: NCI/ADR-RES
A498 = tested on: A498

| Structure (SMILES) | GI50 (OVCAR-8) | GI50 (PC-3) | GI50 (SK-MEL-2) | GI50 (RXF 393) | GI50 (SK-MEL-5) | GI50 (CAKI-1) | GI50 (MDA-MB-435) | GI50 (Hs-578T) | GI50 (A549) | GI50 (K562) | GI50 (NCI-H226) | GI50 (NCI-H460) | GI50 (COLO 205) | GI50 (UACC-257) | GI50 (SR) | GI50 (T47D) | GI50 (NCI-H23) | GI50 (RPMI-8226) | GI50 (NCI/ADR-RES) | GI50 (A498) |
| --- | --- | --- | --- | --- | --- | --- | --- | --- | --- | --- | --- | --- | --- | --- | --- | --- | --- | --- | --- | --- |
| C=C1C[C@H](O)[C@H](Br)C(C)(C)C12CCC(C)(Cl)C(Br)C2 (stereo partly specified) | 1.23 µM (inactive) | 0.153 µM (active) | 1 µM (active) | 1.95 µM (inactive) | 3.04 µM (inactive) | 5.09 µM (inactive) | 2.3 µM (inactive) | 5.2 µM (inactive) | 0.566 µM (active) | 2.44 µM (inactive) | 2.27 µM (inactive) | 1.69 µM (inactive) | 1.02 µM (active) | 0.526 µM (active) | 2.19 µM (inactive) | 0.746 µM (active) | 0.445 µM (active) | 0.589 µM (active) | 4.58 µM (inactive) |  |
| C#CCn1c(=O)c(C)cn(/C(=C/C(=O)OCC)C(=O)OCC)c1=O | 2.49 µM (inactive) | 12.6 µM (inactive) | 13.2 µM (inactive) | 0.569 µM (active) | 11.7 µM (inactive) | 1.66 µM (inactive) | 6.35 µM (inactive) | 10.6 µM (inactive) | 16.2 µM (inactive) | 2.84 µM (inactive) | 2.19 µM (inactive) | 1.95 µM (inactive) | 2.38 µM (inactive) | 14.4 µM (inactive) | 3.5 µM (inactive) | 4.73 µM (inactive) | 9.57 µM (inactive) | 3.98 µM (inactive) | 3.91 µM (inactive) | 16 µM (inactive) |
| CN1CC[C@]23c4c5ccc(O)c4O[C@H]2C(O)CC[C@@]3(O)[C@H]1C5 (stereo partly specified) | > 100 µM (inactive) | > 100 µM (inactive) | > 100 µM (inactive) |  | > 100 µM (inactive) | > 100 µM (inactive) | > 100 µM (inactive) | > 100 µM (inactive) | > 100 µM (inactive) |  | > 100 µM (inactive) |  | > 100 µM (inactive) | > 100 µM (inactive) | > 100 µM (inactive) | > 100 µM (inactive) | > 100 µM (inactive) | > 100 µM (inactive) | > 100 µM (inactive) | > 100 µM (inactive) |
| Fc1ccc(NCn2nc(COc3ccccc3Cl)n(/N=C/c3ccc(-c4ccc(Cl)cc4Cl)o3)c2=S)cc1Cl | 36.1 µM (inactive) | 38.5 µM (inactive) | 25 µM (inactive) | 21.5 µM (inactive) | 7.62 µM (inactive) | 34.4 µM (inactive) | 41.4 µM (inactive) | 82.6 µM (inactive) |  | 15.4 µM (inactive) | 83.8 µM (inactive) | 32.7 µM (inactive) |  | 41.5 µM (inactive) | 16.6 µM (inactive) | 27.7 µM (inactive) | 27.4 µM (inactive) | 22.3 µM (inactive) | 43.5 µM (inactive) | 16.1 µM (inactive) |
| CCOC(=O)/C=C/[C@H](O[Si](c1ccccc1)(c1ccccc1)c1ccccc1)C(C)(C)C | > 31.6 µM (inactive) | 10.5 µM (inactive) | > 31.6 µM (inactive) | 15.5 µM (inactive) | 10.2 µM (inactive) | 28.4 µM (inactive) | > 31.6 µM (inactive) | 20.5 µM (inactive) | 23.3 µM (inactive) | 7.78 µM (inactive) | > 31.6 µM (inactive) | > 10 µM (inactive) | > 31.6 µM (inactive) | 11.1 µM (inactive) | > 10 µM (inactive) | 11.5 µM (inactive) | > 31.6 µM (inactive) | 3.44 µM (inactive) | 28.5 µM (inactive) | > 31.6 µM (inactive) |
| C[N+]12C=CC=C1C(N1CCCC1)c1scc(-c3ccc(F)cc3)c12 (stereo unspecified) | 40.4 µM (inactive) | 27.1 µM (inactive) | 10.5 µM (inactive) | 24.5 µM (inactive) | 13.5 µM (inactive) | > 100 µM (inactive) | 30.6 µM (inactive) | 21.5 µM (inactive) | 56 µM (inactive) | 5.74 µM (inactive) | 23.5 µM (inactive) |  | 18.7 µM (inactive) |  | 11 µM (inactive) | 5.93 µM (inactive) |  | 10.4 µM (inactive) | > 100 µM (inactive) | 43.3 µM (inactive) |
| CCOC(=O)CCc1cc(=O)oc2cc(O)cc(O)c12 | > 100 µM (inactive) | > 100 µM (inactive) | > 100 µM (inactive) | > 100 µM (inactive) | > 100 µM (inactive) | > 100 µM (inactive) | > 100 µM (inactive) | > 100 µM (inactive) | > 100 µM (inactive) | > 100 µM (inactive) | > 100 µM (inactive) | > 100 µM (inactive) | > 100 µM (inactive) | > 100 µM (inactive) | > 100 µM (inactive) | > 100 µM (inactive) | > 100 µM (inactive) | > 100 µM (inactive) | > 100 µM (inactive) | 50.1 µM (inactive) |
| Cc1ccc(NC(=O)CSC(N)=O)cc1C | > 100 µM (inactive) | > 100 µM (inactive) | > 100 µM (inactive) | > 100 µM (inactive) | > 100 µM (inactive) | > 100 µM (inactive) | > 100 µM (inactive) | > 100 µM (inactive) | > 100 µM (inactive) | > 100 µM (inactive) | > 100 µM (inactive) | > 100 µM (inactive) | > 100 µM (inactive) | > 100 µM (inactive) | 34.7 µM (inactive) | > 100 µM (inactive) | > 100 µM (inactive) | 29.3 µM (inactive) | > 100 µM (inactive) | 98.4 µM (inactive) |
| CC1(C)C/C=C\CCC(O)C(O)CCC(C)(C)C1=O (stereo unspecified) | > 100 µM (inactive) | > 100 µM (inactive) | > 100 µM (inactive) | > 100 µM (inactive) | > 100 µM (inactive) | > 100 µM (inactive) | > 100 µM (inactive) | > 100 µM (inactive) | > 100 µM (inactive) | > 100 µM (inactive) | > 100 µM (inactive) | > 100 µM (inactive) | > 100 µM (inactive) | > 100 µM (inactive) | > 100 µM (inactive) | > 100 µM (inactive) | > 100 µM (inactive) | > 100 µM (inactive) | > 100 µM (inactive) | > 100 µM (inactive) |
| CC1C(=O)CC[C@@]2(C)C(=O)CCCC12O (stereo partly specified) |  | > 100 µM (inactive) | > 100 µM (inactive) | > 100 µM (inactive) | > 100 µM (inactive) | > 100 µM (inactive) | > 100 µM (inactive) | > 100 µM (inactive) | > 100 µM (inactive) | > 100 µM (inactive) | > 100 µM (inactive) | > 100 µM (inactive) | > 100 µM (inactive) | > 100 µM (inactive) | > 100 µM (inactive) | > 100 µM (inactive) | > 100 µM (inactive) | > 100 µM (inactive) | > 100 µM (inactive) | > 100 µM (inactive) |
| CCN(CC)CC(O)c1ccc2ccc3ccccc3c2c1 (stereo unspecified) | 16.7 µM (inactive) | 15.8 µM (inactive) | 16.1 µM (inactive) | 16.8 µM (inactive) | 13.9 µM (inactive) | 13.1 µM (inactive) | 16.3 µM (inactive) | 18.7 µM (inactive) | 15.7 µM (inactive) | 17 µM (inactive) | 13.6 µM (inactive) | 17.5 µM (inactive) | 13.9 µM (inactive) | 16.4 µM (inactive) | 5.69 µM (inactive) | 20 µM (inactive) | 16.9 µM (inactive) | 18.9 µM (inactive) | 16.3 µM (inactive) | 12.6 µM (inactive) |
| N=C(N)NS(=O)(=O)c1ccc(Nc2c3ccccc3nc3c(C(=O)NC(CO)(CO)CO)cccc23)cc1 | 29 µM (inactive) | 32.5 µM (inactive) | 19.1 µM (inactive) |  | 17.5 µM (inactive) | 34.5 µM (inactive) | 24.9 µM (inactive) | 11.2 µM (inactive) | 9.66 µM (inactive) | 24.2 µM (inactive) |  | 2.88 µM (inactive) | 12.6 µM (inactive) | > 100 µM (inactive) | 12.5 µM (inactive) | 4.7 µM (inactive) | 36.5 µM (inactive) | 20.1 µM (inactive) | > 100 µM (inactive) | 19.3 µM (inactive) |
| CC1=C(C#N)C2C(=C(N)Oc3ccccc32)C(N)=N1 (stereo unspecified) | 25.1 µM (inactive) | 33.3 µM (inactive) | 20.1 µM (inactive) | 22.7 µM (inactive) | 23.7 µM (inactive) | 19.1 µM (inactive) | 27.7 µM (inactive) | 26.1 µM (inactive) | 38.3 µM (inactive) | 29.7 µM (inactive) | 12.2 µM (inactive) |  | 26.1 µM (inactive) | 20.1 µM (inactive) | 40.8 µM (inactive) | 20.1 µM (inactive) | > 10 µM (inactive) | 24 µM (inactive) | 19.3 µM (inactive) | 24 µM (inactive) |
| COc1ccc(-c2coc3cc(OC)cc(O)c3c2=O)cc1 [4',7-DIMETHOXY-5-HYDROXYGENISTEIN] | > 100 µM (inactive) | > 100 µM (inactive) |  | 27.9 µM (inactive) | > 100 µM (inactive) | > 100 µM (inactive) | > 100 µM (inactive) | 31.1 µM (inactive) | > 100 µM (inactive) | > 100 µM (inactive) | > 100 µM (inactive) | > 100 µM (inactive) | > 100 µM (inactive) | > 100 µM (inactive) | > 100 µM (inactive) | > 100 µM (inactive) | 30.8 µM (inactive) | > 100 µM (inactive) | > 100 µM (inactive) | 24.8 µM (inactive) |
